These results are taken from PMC9959553, “Promising Antifungal Molecules against Mucormycosis Agents Identified from Pandemic Response Box®: In Vitro and In Silico Analyses” (Journal of Fungi, 2023).

Data set [1] can be described thus: Cytotoxicity assay (neutral red). It is filed as cell-based, murine. Conditions: mouse, RAW 264.7 macrophage cells. How it is done: Cytotoxicity of alexidine, MMV1580844, MMV642550 and MMV019724 was performed using three cell lineages: RAW 264.7, a murine macrophage culture; A549, adenocarcinomic human alveolar basal epithelial cells; and HaCaT, a spontaneously transformed aneuploid immortal keratinocyte cell line from adult human skin. Cells were grown in DMEM (Dulbecco’s Modified Eagle’s Medium, Sigma-Aldrich, MO, USA), supplemented with 10% fetal bovine serum and incubated for 48 h at 37 °C with 5% CO2 in the presence of serially diluted concentrations (0.3–50 μM) of each compound. Cell viability was measured using the neutral red (NR) assay and quantified using a spectrophotometer at 595 nm (SpectraMax® i3x, Molecular Devices®, San José, CA, USA).

In data set [2] the test system is R. oryzae, R. microsporus and R. stolonifer biofilm formation. Kind of data set: Biofilm formation assay, stated over the three species. It is filed as cell-based, Rhizopus species. How it is done: (§1) Biofilm formation assay was performed according to Rollin-Pinheiro and colleagues. Biofilms were grown on the surface of sterile polystyrene microplates (96-well). Briefly, serial dilutions of selected compounds were prepared in RPMI 1640 medium (8–¼× MIC) and deposited in 100 µL aliquots in microplate wells. Subsequently, 100 µL containing 10^5 Rhizopus conidia in RPMI 1640 medium was added to each well and incubated for 48 h at 37 °C.
(§2) For the preformed biofilm assay, cells were cultured as described above in the absence of the compounds. […] An additional incubation of 24 h at 37 °C was performed to evaluate the anti-biofilm activity. Evaluation of both biofilm formation and preformed biofilms was performed using three parameters as previously described. Crystal violet, safranin and XTT assays were used to analyze the overall biomass, extracellular matrix and metabolic activity, respectively.

A further data set concerns R. oryzae UCP1295. As to the kind of experiment: Screening of the Pandemic Response Box library at 5 µM. Conditions: for inhibition at 5 µM: Rhizopus arrhizus, UCP1295, 48 h; for Viability Inhibition (XTT): XTT reduction. It counts as cell-based, Rhizopus oryzae. In a few lines: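 Compounds at 5 μM in RPMI 1640 with 2% glucose and MOPS (0.165 mol/L, pH 7.2), with conidia at 2 × 10^5/mL, incubated 48 h at 37 °C in 5% CO2. Growth read by OD at 600 nm; hits defined as ≥60% inhibition. Posaconazole (5 μM) and 1% DMSO as controls.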
(Formazan colour is commonly taken as a measure of viable cells.)

Data set [3] concerns R. oryzae, R. microsporus and R. stolonifer. Kind of data set: Antifungal susceptibility testing, values stated over the three species. It counts as cell-based. Conditions: over the three Rhizopus species. How it is done: (§3) The susceptibility of the Rhizopus species to MMV396785 (alexidine), MMV1580844, MMV642550 and MMV019724 was determined using the broth microdilution method, according to EUCAST protocols, with modifications. Posaconazole and amphotericin B were also used as reference antifungal drugs because they are commonly used for the treatment of mucormycosis. […] A standardized suspension of conidia (2 × 10^5/mL) was added to the wells and incubated for 48 h at 37 °C, in a 5% CO2 atmosphere. Fungal growth was analyzed via spectrophotometry readings at 600 nm and cell viability was assessed using the XTT reduction assay. Minimum inhibitory concentration (MIC) of each compound was defined as the lowest concentration that inhibits 50% of fungal growth, because these fungi are highly resistant to antifungal drugs and a reduction in half of their growth is relevant. […] MFC values were defined as the lowest drug concentration able to arrest fungal growth.

Another data set concerns R. stolonifer biofilm. As to the kind of experiment: Biofilm formation assay. It is filed as cell-based, Rhizopus stolonifer. How it is done:
as §1, §2

For a further data set, the system named is R. oryzae. As to the kind of experiment: Antifungal susceptibility testing (broth microdilution, MIC and MFC). It counts as cell-based, Rhizopus oryzae. The settings on record: for Selectivity Index (SI), Planktonic Cell: R. oryzae, from CC50 and MIC50 of planktonic cells; for MIC50 / MFC: Rhizopus arrhizus, 48 h; for MIC50: lowest concentration that inhibits 50% of fungal growth; for MFC: subculture in drug-free medium. Here is the method: as §3

A further data set has as its system R. stolonifer. Described as above. It counts as cell-based, Rhizopus stolonifer. The settings on record: for Selectivity Index (SI), Planktonic Cell: R. stolonifer, from CC50 and MIC50 of planktonic cells; for MIC50 / MFC: Rhizopus stolonifer, 48 h; for MIC50: lowest concentration that inhibits 50% of fungal growth; for MFC: subculture in drug-free medium. Here is the method:
as §3

In another data set the test system is A549 cells. Also on record: method as in PMID 30381356. Conditions: cited from earlier work.
The subject of data set [4] is R. oryzae preformed biofilm. As to the kind of experiment: Preformed biofilm assay. It is filed as cell-based, Rhizopus oryzae. Conditions: for Selectivity Index (SI), Preformed Biofilm: R. oryzae, based on biofilm viability parameter. Here is the method: as §2
A further data set concerns R. oryzae biofilm. Kind of data set: Biofilm formation assay. It counts as cell-based, Rhizopus oryzae. The settings on record: at MIC. How it is done:
as §1, §2

The test system of the next data set is HUVEC. On the set-up: method as in PMID 30381356. The settings on record: cited from earlier work.
The subject of another data set is R. microsporus biofilm. Kind of data set: Biofilm formation assay. It is filed as cell-based, Rhizopus microsporus. The settings on record: at MIC. How it is done: as §1, §2
A further data set relates to A549 cell line. Also on record: method as in PMID 32560115. The settings on record: cited from earlier work.
The subject of data set [5] is Staphylococcus aureus, Balamuthia mandrillaris, C. albicans, C. glabrata and C. auris. On the set-up: method as in PMID 23375226, PMID 24568657, PMID 32560115, PMID 22347365. Conditions: for all of the listed species; cited from earlier work.
The next data set concerns S. brasiliensis. On the set-up: method as in PMID 36294569. Conditions: cited from earlier work.
In the next data set the test system is C. auris. The settings on record: cited from earlier work.
For the next data set, the system named is S. schenckii. Also on record: method as in PMID 36294569. The settings on record: cited from earlier work.
In another data set the test system is Cryptococcus species. The settings on record: cited from earlier work.
[6] abbreviates: Table S1, mean of the four values, read-out: % of growth inhibition, Mean.
The mark [7] stands for this setting: optical density 600 nm, read-out: Growth Inhibition.

In general, CC50 refers to the concentration giving 50% cytotoxicity. Low values mean harm at low concentration, high ones better tolerance by the cells. One may read the inhibition as the drop in the measured response relative to a control, in per cent. By MFC is commonly meant the lowest tested concentration that kills the fungus rather than only halting it. A word on the MIC: it is the smallest concentration in the dilution series that meets the test's criterion for growth inhibition. In general, MIC50 refers to the lowest concentration that inhibits either 50% of growth or 50% of the strains tested, depending on the study. A high value points to weaker potency. Broadly, the IC50 is the concentration at which inhibition is half-maximal.

SMILES strings stand for the structures. ≈ marks a conversion by molar mass, not a printed value. Where “and” joins values, the source holds several entries; their conditions need not be identical. Equal entries are not always repeated. Where two headings read alike, the source gives them in different places.

Regarding `CCCCC(CC)CNC(=N)NC(=N)NCCCCCCNC(=N)NC(=N)NCC(CC)CCCC` (stereo not drawn) [MMV396785, Alexidine, reference compound], in data set [1], the CC50 at 48 h was greater than 50 µM. In addition, the “inhibition of biofilm formation (total biomass, matrix and viability)” value in [2] was roughly 100%. Besides, the figures for the inhibition at 5 µM in the data set with R. oryzae UCP1295 (setting [6]) and in the data set with R. oryzae UCP1295 (setting [7]) were 70.1% and 70%, respectively. For the same compound, the “Viability Inhibition (XTT)” value in the data set with R. oryzae UCP1295 is 89%; with R. oryzae UCP1295 (listed as alexidine), “about 89%”. Besides, the MFC was 1.25 to 10 µM (≈ 0.636 to 5.09 µg/mL) in [3], 10 µM (≈ 5.09 µg/mL) against R. oryzae and 10 µM (≈ 5.09 µg/mL) with R. stolonifer. Further, in [3], the MIC lay in the range of 0.63 to 1.25 µM (≈ 0.321 to 0.636 µg/mL). Moreover, the “concentration giving reduction in biofilm parameters” value in the data set on R. stolonifer biofilm was no less than 2 × MIC. Moreover, the figures for the “Selectivity Index (SI), Planktonic Cell” value in the data set with R. oryzae (listed as Alexidina MMV396785) and in the data set on R. stolonifer (listed as Alexidina MMV396785) were greater than 40 and greater than 79.4, respectively. For the same compound, the MIC50 in the data set with R. oryzae was 1.25 µM (≈ 0.636 µg/mL); in the data set on R. stolonifer, 0.63 µM (≈ 0.321 µg/mL). The “concentration that damaged cells” value in the data set on A549 cells was 14.7 µg/mL and 28.89 µM; in the data set on HUVEC, 14.7 µg/mL and 28.89 µM. For the same compound, the “Selectivity Index (SI), Preformed Biofilm” value in data set [4] (listed as Alexidina MMV396785) is greater than 20. Further, in [4] (preformed biofilm, 24 h treatment), the “concentration giving significant decrease in biofilm parameters” value was 2 × MIC. The “biofilm biomass, extracellular matrix and viability decreased to” value with R. oryzae biofilm and in the data set on R. microsporus biofilm was 25% throughout.
For the compound `CCc1nc(N)nc(N)c1C#CC(C)c1cc(OC)cc(-c2ccncc2)c1` (stereo not drawn) [MMV1580844], the 50% cytotoxic concentration (CC50) at 48 h in [1] was greater than 50 µM. The inhibition at 5 µM in the data set with R. oryzae UCP1295 (setting [6]) stood at 70.2%; in the data set with R. oryzae UCP1295 (setting [7]) it was 71%. Further, in the data set with R. oryzae UCP1295, the “Viability Inhibition (XTT)” value is 88%. The minimal inhibitory concentration (MIC) in data set [3] was 0.08 µM (≈ 0.0299 µg/mL); in data set [5], “lower than 100 nM”. The “Selectivity Index (SI), Planktonic Cell” value in the data set on R. oryzae and in the data set with R. stolonifer was greater than 625 throughout. Further, the MIC50 against R. oryzae and in the data set with R. stolonifer was 0.08 µM (≈ 0.0299 µg/mL) each time. Besides, the MFC with R. oryzae and in the data set with R. stolonifer was greater than 20 µM throughout. For the same compound, in the data set with A549 cell line, the IC50 was greater than 10 µM.
`Oc1c(C(Nc2nc3ccccc3s2)c2ccc(OC(F)F)cc2)ccc2cccnc12` (stereo not drawn) [MMV019724] displayed a cytotoxic concentration (CC50) at 48 h in [1] greater than 50 µM. Also, the “concentration that inhibits 50%” value is 0.25 µM in the data set with S. brasiliensis and 1 µM with S. schenckii. In addition, the inhibition at 5 µM was 69.6% with R. oryzae UCP1295 (setting [6]) and 70% with R. oryzae UCP1295 (setting [7]). In addition, in the data set with R. oryzae UCP1295, the “Viability Inhibition (XTT)” value came to 77%. The same compound yielded an MIC in [3] of 0.63 to 1.25 µM (≈ 0.283 to 0.562 µg/mL). Besides, the “concentration able to inhibit 90% of growth” value was 2.5 µM in the data set with C. auris and 5 µM in the data set on Cryptococcus species. In addition, the “Selectivity Index (SI), Planktonic Cell” value in the data set on R. oryzae is listed as greater than 79.4; in the data set with R. stolonifer it was greater than 40. Moreover, the MIC50 is 0.63 µM (≈ 0.283 µg/mL) in the data set with R. oryzae and 1.25 µM (≈ 0.562 µg/mL) against R. stolonifer. In addition, the MFC with R. oryzae and against R. stolonifer was greater than 20 µM each time. For the same compound, in the data set with A549 cell line, the IC50 was 6.2 µM. Further, the “Selectivity Index (SI), Preformed Biofilm” value in [4] is given as greater than 10.
